The test system of test [1] is streptozotocin diabetic rats (tactile allodynia). Put plainly: Tactile allodynia (Von Frey filaments) in streptozotocin diabetic rats. The format is in vivo, rat. As for the experimental part:
A) Insulin deficient diabetes was induced in rats by a single injection of streptozotocin (50 mg/kg, intraperitoneally). After having confirmed the development of diabetes by established hyperglycemia, determined in blood samples taken from the rats, asimadoline was administered subcutaneously at doses of 1 mg/kg, 5 mg/kg and 15 mg/kg. For comparison, gabapentin, the most recent treatment for diabetic neuropathy, at 50 mg/kg was included. To determine mechanical threshold (tactile allodynia) for foot withdrawal, a series of Von Frey filaments (minimum 0.25 g; maximum 15 g) was applied in sequence to the plantar surface of the right hindpaw with a pressure that causes the filament to buckle, starting with a filament of a buckling weight of 2 g. Absence of a response after 5 seconds was regarded a negative response, and the next heavier filament was applied. Lifting of the paw was recorded as a positive response, and the next lightest filament were applied. This sequence was continued until four measurements have been made after an initial change in the behavior or until five consecutive negative (given the score of 15 g) or four positive (score of 0.25 g) scores were obtained. The resulting sequence of positive and negative scores was used to determine the 50% response threshold.
That the beneficial effects are indeed due to the opioid mechanism of asimadoline can also be seen in Table 1.

In test [2] the test system is capsaicin-treated monkey tail (thermal allodynia). The test is described as follows: Capsaicin-induced thermal allodynia, tail withdrawal latency in monkey model. The format is in vivo. The following applies: 45 min after administration; for Tail Withdrawal Latency Mean ± SEM: capsaicin, cut-off 20 sec. As for the experimental part: C) Because neuropatic pain is characterized by allodynia for various sensory modalities, also thermal allodynia was investigated in a monkey model where allodynia was induced by the topical application of […] of capsaicin to the surface of the tail. Allodynia was assessed by the latency for withdrawal of the tail following immersion of the tail into water with non-noxious temperatures of either 38° C. or 42° C. (cut-off latency of 20 sec).

For test [3], the system named is L5/L6 spinal nerve ligated rats (tactile allodynia). The test is described as follows: Tactile allodynia (Von Frey filaments) in rats with L5 and L6 spinal nerve ligation. The format is in vivo, rat. An excerpt:
B) Neuropathic pain was induced by surgical […], i.e. the L5 and L6 spinal nerves on one side were tightly ligated in anesthetized rats. After 15 days of recovery, a series of Von Frey filaments (0.4- 15 g) was applied in sequence to the plantar surface of the ligated hind paw to determine the 50% mechanical threshold for foot withdrawal as described before.

As for `CN(C(=O)C(c1ccccc1)c1ccccc1)[C@H](CN1CC[C@H](O)C1)c1ccccc1.Cl` [Asimadoline, N-methyl-N-[(1S)-1-phenyl-2-((3S)-3-hydroxypyrrolidin-1-yl)ethyl]-2,2-diphenylacetamide, hydrochloride], the “50% Response Threshold Mean ± SEM” value in test [1] (diabetic rats, 1 mg/kg s.c., 3 h after administration) worked out at 2 ± 0.2 g; in test [1] (diabetic rats, 5 mg/kg s.c., 3 h after administration), 6 ± 2.0 g; in test [1] (diabetic rats, 15 mg/kg s.c., 3 h after administration), 9 ± 1.7 g; in test [1] (diabetic rats, nor-BNI 100 μg i.pl. + Asimadoline 15 mg/kg s.c.), 3 ± 1.0 g; in test [3] (1 mg/kg p.o., 2 h after administration) it was 6.4 ± 0.5 g; in test [3] (3 mg/kg p.o., 2 h after administration), 10.1 ± 0.6 g. Moreover, the “50% Response Threshold Mean ± SEM” value in test [3] (10 mg/kg p.o., 2 h after administration) is reported as 12.0 ± 0.4 g. In addition, the “effect on tactile allodynia (in words)” value in test [1] (diabetic rats, highest dose (15 mg/kg s.c.), 3 h after administration) was “nearly completely abolished tactile allodynia”; in test [3] (highest dose (10 mg/kg p.o.), 2 h after administration) it was “nearly completely abolished tactile allodynia”. Further, the “anti-allodynic effect after intraplantar injection of kappa antagonist nor-BNI (in words)” value in test [1] (diabetic rats, highest dose of asimadoline + nor-BNI i.pl.) is “completely abolished”. The “Tail Withdrawal Latency Mean ± SEM” value in test [2] (0.01 mg/kg s.c., water 38° C.) came to 8.0 ± 4.5 s; in test [2] (0.01 mg/kg s.c., water 42° C.), 4.5 ± 2.5 s; in test [2] (0.032 mg/kg s.c., water 38° C.) it was 19.6 ± 0.4 s; in test [2] (0.032 mg/kg s.c., water 42° C.), 12.8 ± 4.2 s. The “effect on thermal allodynia (in words)” value in test [2] (highest dose (0.032 mg/kg s.c.), 38° C. condition) is reported as “nearly completely abolished thermal allodynia”.

Turning to `NCC1(CC(=O)O)CCCCC1` [Gabapentin, reference compound], the “50% Response Threshold Mean ± SEM” value in test [1] (diabetic rats, 50 mg/kg s.c.) is on record as 10 ± 1.9 g; in test [3] (100 mg/kg p.o.) it was 12.8 ± 1.6 g.

With `Oc1ccc2c3c1O[C@H]1c4[nH]c5c(c4C[C@@]4(O)[C@@H](C2)N(CC2CC2)CC[C@]314)C[C@@]1(O)[C@H]2Cc3ccc(O)c4c3[C@@]1(CCN2CC1CC1)[C@H]5O4` [nor-BNI, nor-binaltorphimine, reference compound], in test [1] (non-diabetic control rats, nor-BNI 100 μg i.pl.), the “50% Response Threshold Mean ± SEM” value is 13 ± 1.6 g.

(Values after US20080090859A1, “Use of Selective Opiate Receptor Modulators In the Treatment Of Neuropathy” (TIOGA PHARMACEUTICALS, INC., priority 2003, published 2008).)
